# “And” between values parts separate entries of the source, which are not always exact repeats. Equal values may be shown once. Read-outs that look alike come from different tables or passages of the source.
# Key:
# CDK12–cyclin K and DDB1 = molecular target: T1, CDK12–cyclin K and DDB1 (Homo sapiens, UniProt Q16531+Q9NYV4, K965R); experiment: TR-FRET ternary complex formation assay (compound titration); assay type: binding
# T1 construct: His6–CDK12 (a.a. 713–1,052); full-length or beta-propeller B domain deletion (ΔBPB: a.a. 396–705 deleted) constructs of His6–DDB1ΔBPB, StrepII–Avi–DDB1, or His6–Spy–DDB1; made in house; host or cells: Trichoplusia ni High Five insect cells (baculovirus)
# In short: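 A time delay of 70 μs preceded acquisition, limiting background fluorescence; the ratio of emission at 520 versus 490 nm gave the TR-FRET value.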
# HEK293T cells = experiment: Drug sensitivity assay (CellTiter-Glo viability) with or without MLN4924 pretreatment; assay type: cell-based, human; details: for CTG: MLN4924 yes, HEK293T, single well; for EC50: Homo sapiens, HEK-293T, HEK293T viability, 72 h, compound alone, read-out: Cellular assays EC50; for EC50 / Toxicity rescue: Supplementary Table 2; for Toxicity rescue: MLN4924-mediated cytotoxicity rescue, 10 µM used where n.d.
# In short: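 Cas9-expressing HEK293T cells receive either vehicle or 100 nM MLN4924, then compounds 2 h afterwards. After three days, luminescence-based viability is measured and calculated relative to DMSO.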
# CDK12 = molecular target: T2, CDK12 (Homo sapiens, UniProt Q16531+Q9NYV4); experiment: Label-free quantitative mass spectrometry in MDA-MB-231 cells, CDK12; assay type: cell-based; details: for CDK12 peptide count: label-free quantitative MS, replicate values; for CDK12 peptide count (DMSO-normalised): normalised to DMSO = 1, replicate values
# T2 construct: endogenous in cells; host or cells: MDA-MB-231
# In short: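 MDA-MB-231 cells treated 5 h with 1 µM cyclin K degrader or DMSO. Lysates digested with LysC and trypsin, then analysed by label-free diaPASEF LC-MS on a TimsTOF Pro2 with directDIA search and MS1 precursor quantification. Protein abundances scaled and analysed with limma.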
# [1] = compound concentration 0.468 nM
# [2] = compound concentration 7.92001 nM
# [3] = compound concentration 15.84 nM
# [4] = compound concentration 30.96 nM
# [5] = compound concentration 62.6401 nM
# [6] = compound concentration 125.28 nM
# [7] = compound concentration 244.8 nM
# [8] = compound concentration 993.601 nM
# [9] = compound concentration 2001.6 nM
# [10] = in vitro complex formation, 50 nM CDK12–cyclin K, 100 nM DDB1, text and figures, read-out: TR-FRET EC50
# [11] = sheet MOESM7, read-out: log TR-FRET EC50 (converted)
# [12] = source data sheet correlations, read-out: TR-FRET EC50
# T1 sequence (Q9NYV4 713-1052 K965R): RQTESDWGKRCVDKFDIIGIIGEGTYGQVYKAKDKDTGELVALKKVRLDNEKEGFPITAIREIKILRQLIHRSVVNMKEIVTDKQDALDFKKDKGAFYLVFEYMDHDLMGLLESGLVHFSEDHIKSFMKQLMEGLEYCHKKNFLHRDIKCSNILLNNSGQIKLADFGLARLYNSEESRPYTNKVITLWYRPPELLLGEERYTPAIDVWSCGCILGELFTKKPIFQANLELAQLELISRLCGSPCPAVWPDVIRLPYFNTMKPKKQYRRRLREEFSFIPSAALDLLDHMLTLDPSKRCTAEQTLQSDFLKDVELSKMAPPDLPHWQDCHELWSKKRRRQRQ
# T1 sequence (O75909 1-267 partner): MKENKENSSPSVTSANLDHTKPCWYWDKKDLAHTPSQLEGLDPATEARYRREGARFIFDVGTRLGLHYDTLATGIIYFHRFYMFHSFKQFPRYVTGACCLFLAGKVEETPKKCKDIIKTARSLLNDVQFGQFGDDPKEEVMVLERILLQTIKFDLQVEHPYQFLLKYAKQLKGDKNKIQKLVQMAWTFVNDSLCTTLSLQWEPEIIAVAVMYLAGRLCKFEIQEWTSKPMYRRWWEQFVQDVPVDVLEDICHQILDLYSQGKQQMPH
# T1 sequence (Q16531 whole entry): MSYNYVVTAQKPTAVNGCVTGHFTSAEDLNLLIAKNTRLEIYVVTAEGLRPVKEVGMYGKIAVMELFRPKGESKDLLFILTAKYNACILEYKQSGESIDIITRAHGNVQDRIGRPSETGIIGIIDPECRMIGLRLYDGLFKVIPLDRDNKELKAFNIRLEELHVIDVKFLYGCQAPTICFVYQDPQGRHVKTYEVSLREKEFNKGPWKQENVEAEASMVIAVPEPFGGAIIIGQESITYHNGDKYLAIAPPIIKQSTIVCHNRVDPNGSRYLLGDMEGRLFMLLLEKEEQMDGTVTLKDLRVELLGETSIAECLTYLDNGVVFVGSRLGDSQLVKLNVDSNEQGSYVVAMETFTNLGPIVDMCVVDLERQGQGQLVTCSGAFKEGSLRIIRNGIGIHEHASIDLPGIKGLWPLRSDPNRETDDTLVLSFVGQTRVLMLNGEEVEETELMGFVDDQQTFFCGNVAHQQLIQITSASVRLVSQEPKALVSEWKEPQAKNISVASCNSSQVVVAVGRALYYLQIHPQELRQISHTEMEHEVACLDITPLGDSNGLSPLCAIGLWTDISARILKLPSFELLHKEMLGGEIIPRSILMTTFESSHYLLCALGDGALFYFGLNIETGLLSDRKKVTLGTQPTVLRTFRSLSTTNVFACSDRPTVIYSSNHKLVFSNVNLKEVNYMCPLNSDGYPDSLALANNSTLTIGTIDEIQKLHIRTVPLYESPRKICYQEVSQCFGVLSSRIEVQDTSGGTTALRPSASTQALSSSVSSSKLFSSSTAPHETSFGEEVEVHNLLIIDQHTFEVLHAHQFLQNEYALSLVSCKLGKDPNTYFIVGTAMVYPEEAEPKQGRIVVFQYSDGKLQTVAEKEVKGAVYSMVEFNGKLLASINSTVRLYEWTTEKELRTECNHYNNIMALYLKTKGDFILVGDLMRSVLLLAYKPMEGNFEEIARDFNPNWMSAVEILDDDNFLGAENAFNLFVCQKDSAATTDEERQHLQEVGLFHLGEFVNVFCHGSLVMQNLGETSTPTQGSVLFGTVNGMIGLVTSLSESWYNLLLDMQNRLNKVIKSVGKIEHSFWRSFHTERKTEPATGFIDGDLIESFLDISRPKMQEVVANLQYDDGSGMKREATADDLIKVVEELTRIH
# T2 sequence (Q9NYV4 whole entry): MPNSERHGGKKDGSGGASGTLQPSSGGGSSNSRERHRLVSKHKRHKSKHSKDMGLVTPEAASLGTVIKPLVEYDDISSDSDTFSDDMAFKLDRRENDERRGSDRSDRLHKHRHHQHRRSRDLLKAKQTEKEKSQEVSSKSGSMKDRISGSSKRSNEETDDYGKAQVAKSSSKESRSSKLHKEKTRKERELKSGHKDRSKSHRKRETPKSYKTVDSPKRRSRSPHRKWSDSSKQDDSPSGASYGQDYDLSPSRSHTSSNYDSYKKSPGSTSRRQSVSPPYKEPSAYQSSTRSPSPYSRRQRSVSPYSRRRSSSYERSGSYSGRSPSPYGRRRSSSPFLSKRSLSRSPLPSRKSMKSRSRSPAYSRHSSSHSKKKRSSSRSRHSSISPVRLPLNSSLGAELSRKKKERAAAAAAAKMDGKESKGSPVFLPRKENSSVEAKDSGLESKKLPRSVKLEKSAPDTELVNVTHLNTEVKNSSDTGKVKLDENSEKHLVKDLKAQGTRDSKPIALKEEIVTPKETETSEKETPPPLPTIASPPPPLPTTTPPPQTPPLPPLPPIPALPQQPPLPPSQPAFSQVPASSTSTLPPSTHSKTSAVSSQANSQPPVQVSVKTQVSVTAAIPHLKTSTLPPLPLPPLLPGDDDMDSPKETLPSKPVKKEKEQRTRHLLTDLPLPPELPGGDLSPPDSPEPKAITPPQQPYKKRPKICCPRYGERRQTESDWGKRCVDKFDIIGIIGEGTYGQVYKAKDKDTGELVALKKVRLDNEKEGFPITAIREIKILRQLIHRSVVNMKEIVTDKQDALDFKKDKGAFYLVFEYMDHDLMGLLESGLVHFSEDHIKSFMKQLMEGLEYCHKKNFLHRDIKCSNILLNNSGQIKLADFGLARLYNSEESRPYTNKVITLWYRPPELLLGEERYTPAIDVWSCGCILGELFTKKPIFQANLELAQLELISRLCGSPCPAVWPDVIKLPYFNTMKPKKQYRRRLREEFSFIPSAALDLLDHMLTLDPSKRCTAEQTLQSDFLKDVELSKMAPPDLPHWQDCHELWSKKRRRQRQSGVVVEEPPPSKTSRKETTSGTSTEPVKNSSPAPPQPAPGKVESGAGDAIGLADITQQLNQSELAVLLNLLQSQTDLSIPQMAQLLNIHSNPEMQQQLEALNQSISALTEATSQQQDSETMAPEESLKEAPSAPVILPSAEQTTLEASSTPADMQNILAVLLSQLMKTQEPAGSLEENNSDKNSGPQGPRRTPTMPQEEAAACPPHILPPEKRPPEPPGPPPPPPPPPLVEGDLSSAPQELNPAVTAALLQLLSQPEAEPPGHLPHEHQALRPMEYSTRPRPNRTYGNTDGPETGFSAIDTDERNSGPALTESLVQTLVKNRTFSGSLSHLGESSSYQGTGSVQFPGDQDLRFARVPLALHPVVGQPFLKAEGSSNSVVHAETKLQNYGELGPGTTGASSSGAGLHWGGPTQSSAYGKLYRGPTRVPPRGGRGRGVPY
# T2 sequence (O75909 whole entry partner): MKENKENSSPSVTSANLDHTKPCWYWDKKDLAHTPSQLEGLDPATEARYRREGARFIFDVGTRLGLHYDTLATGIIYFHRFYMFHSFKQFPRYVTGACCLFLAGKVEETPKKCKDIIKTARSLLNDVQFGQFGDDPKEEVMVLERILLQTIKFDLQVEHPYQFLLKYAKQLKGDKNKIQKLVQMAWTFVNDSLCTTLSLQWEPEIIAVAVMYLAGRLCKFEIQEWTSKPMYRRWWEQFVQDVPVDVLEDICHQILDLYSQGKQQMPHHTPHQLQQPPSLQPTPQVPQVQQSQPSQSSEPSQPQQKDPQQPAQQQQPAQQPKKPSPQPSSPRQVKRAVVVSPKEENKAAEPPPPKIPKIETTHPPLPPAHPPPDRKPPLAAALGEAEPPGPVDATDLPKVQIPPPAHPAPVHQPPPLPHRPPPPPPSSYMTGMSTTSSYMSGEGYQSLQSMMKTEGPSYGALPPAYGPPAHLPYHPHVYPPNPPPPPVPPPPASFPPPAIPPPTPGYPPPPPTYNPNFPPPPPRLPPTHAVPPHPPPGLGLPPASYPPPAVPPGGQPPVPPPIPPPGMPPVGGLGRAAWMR
# T2 sequence (Q16531 2-1140 limits assumed): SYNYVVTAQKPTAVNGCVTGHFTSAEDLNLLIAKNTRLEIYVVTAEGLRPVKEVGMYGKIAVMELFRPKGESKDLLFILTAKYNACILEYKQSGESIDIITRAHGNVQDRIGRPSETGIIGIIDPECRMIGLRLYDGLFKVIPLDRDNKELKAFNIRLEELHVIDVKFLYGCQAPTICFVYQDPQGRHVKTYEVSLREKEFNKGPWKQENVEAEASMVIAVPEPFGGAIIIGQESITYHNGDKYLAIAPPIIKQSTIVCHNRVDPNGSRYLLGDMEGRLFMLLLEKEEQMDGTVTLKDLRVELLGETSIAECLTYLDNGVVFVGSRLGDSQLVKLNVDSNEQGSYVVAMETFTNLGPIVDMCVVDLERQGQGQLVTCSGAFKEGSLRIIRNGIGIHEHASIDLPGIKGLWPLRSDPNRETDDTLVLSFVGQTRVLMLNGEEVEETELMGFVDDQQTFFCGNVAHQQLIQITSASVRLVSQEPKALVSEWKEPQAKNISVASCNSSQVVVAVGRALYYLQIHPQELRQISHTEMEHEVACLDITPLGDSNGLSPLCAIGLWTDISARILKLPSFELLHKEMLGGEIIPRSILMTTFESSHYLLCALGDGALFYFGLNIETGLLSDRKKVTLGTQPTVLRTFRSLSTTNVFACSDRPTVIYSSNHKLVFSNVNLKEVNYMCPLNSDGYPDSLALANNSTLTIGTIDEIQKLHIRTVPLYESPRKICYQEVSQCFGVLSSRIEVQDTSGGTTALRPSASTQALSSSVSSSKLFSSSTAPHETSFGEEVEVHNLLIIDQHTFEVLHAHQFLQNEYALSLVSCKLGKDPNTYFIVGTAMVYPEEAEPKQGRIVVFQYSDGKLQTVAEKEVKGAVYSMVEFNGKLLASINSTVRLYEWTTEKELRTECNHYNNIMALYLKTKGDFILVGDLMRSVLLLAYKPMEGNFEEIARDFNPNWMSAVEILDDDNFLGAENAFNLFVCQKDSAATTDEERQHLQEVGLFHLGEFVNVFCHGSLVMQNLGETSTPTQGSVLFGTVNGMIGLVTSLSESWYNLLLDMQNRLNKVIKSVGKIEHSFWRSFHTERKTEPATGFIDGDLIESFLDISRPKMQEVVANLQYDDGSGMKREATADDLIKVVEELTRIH
compound,measurement,setting,value
CC(C)c1nn(-c2c(Cl)cccc2Cl)c2nc(Cc3ccc(OCCO)cc3)[nH]c(=O)c12 [compound 21195],TR-FRET signal,CDK12–cyclin K and DDB1; [1],0.2628 and 0.2699 and 0.216 and 0.239 and 0.2342 and 0.2245
same,TR-FRET signal,CDK12–cyclin K and DDB1; compound concentration 2.16 nM,0.3464 and 0.3831 and 0.355 and 0.3843 and 0.3684 and 0.3664
same,TR-FRET signal,CDK12–cyclin K and DDB1; compound concentration 3.6 nM,0.5968 and 0.6945 and 0.6556 and 0.7072 and 0.6869 and 0.6829
same,TR-FRET signal,CDK12–cyclin K and DDB1; [2],1.121 and 1.282 and 1.315 and 1.383 and 1.34 and 1.348
same,TR-FRET signal,CDK12–cyclin K and DDB1; [3],1.693 and 2.27 and 2.427 and 2.5504 and 2.497
same,TR-FRET signal,CDK12–cyclin K and DDB1; [4],2.9489 and 3.238 and 3.271 and 3.348 and 3.319 and 3.3062
same,TR-FRET signal,CDK12–cyclin K and DDB1; [5],3.288 and 3.494 and 3.577 and 3.452 and 3.519 and 3.526
same,TR-FRET signal,CDK12–cyclin K and DDB1; [6],3.346 and 3.624 and 3.589 and 3.472 and 3.591 and 3.561
same,TR-FRET signal,CDK12–cyclin K and DDB1; [7],3.392 and 3.7057 and 3.68 and 3.58 and 3.638 and 3.662
same,TR-FRET signal,CDK12–cyclin K and DDB1; [8],3.425 and 3.678 and 3.687 and 3.61 and 3.695 and 3.669
same,TR-FRET signal,CDK12–cyclin K and DDB1; [9],3.544 and 3.666 and 3.468 and 3.558 and 3.691 and 3.74
same,EC50,CDK12–cyclin K and DDB1; [10],0.012 ± 0.0004 µM
same,EC50,CDK12–cyclin K and DDB1; [11],0.012 µM
same,EC50,CDK12–cyclin K and DDB1; [12],0.012 µM
same,viability assay signal (normalized),"HEK293T cells; 5 nM, + MLN4924",0.9981 and 0.9962
same,viability assay signal (normalized),"HEK293T cells; 5 nM, without MLN4924",1.164 and 1.103
same,viability assay signal (normalized),"HEK293T cells; 10.7 nM, + MLN4924",1.03 and 0.9545
same,viability assay signal (normalized),"HEK293T cells; 10.7 nM, without MLN4924",1.004 and 0.916
same,viability assay signal (normalized),"HEK293T cells; 22.9 nM, + MLN4924",1.044 and 1.059
same,viability assay signal (normalized),"HEK293T cells; 22.9 nM, without MLN4924",0.9744 and 0.9831
same,viability assay signal (normalized),"HEK293T cells; 48.9 nM, + MLN4924",0.9201 and 0.8826
same,viability assay signal (normalized),"HEK293T cells; 48.9 nM, without MLN4924",0.5003 and 0.5087
same,viability assay signal (normalized),"HEK293T cells; 105 nM, + MLN4924",0.7478 and 0.7261
same,viability assay signal (normalized),"HEK293T cells; 105 nM, without MLN4924",0.2946 and 0.2725
same,viability assay signal (normalized),"HEK293T cells; 224 nM, + MLN4924",0.3645 and 0.3756
same,viability assay signal (normalized),"HEK293T cells; 224 nM, without MLN4924",0.297 and 0.2837
same,viability assay signal (normalized),"HEK293T cells; 478 nM, + MLN4924",0.2678 and 0.2737
same,viability assay signal (normalized),"HEK293T cells; 478 nM, without MLN4924",0.2806 and 0.2662
same,CTG,HEK293T cells; 2190 nM,32283
same,viability assay signal (normalized),"HEK293T cells; 2190 nM, + MLN4924",0.2528 and 0.2544
same,viability assay signal (normalized),"HEK293T cells; 2190 nM, without MLN4924",0.2713 and 0.2676
same,CTG,HEK293T cells; 4680 nM,28534 and 32644
same,viability assay signal (normalized),"HEK293T cells; 4680 nM, + MLN4924",0.2234 and 0.2556
same,viability assay signal (normalized),"HEK293T cells; 4680 nM, without MLN4924",0.2632 and 0.2448
same,CTG,HEK293T cells; 10000 nM,27157 and 28920
same,viability assay signal (normalized),"HEK293T cells; 10000 nM, + MLN4924",0.2126 and 0.2265
same,viability assay signal (normalized),"HEK293T cells; 10000 nM, without MLN4924",0.2678 and 0.2469
same,EC50,HEK293T cells,0.039 µM
same,Toxicity rescue,HEK293T cells,226%
same,CDK12 peptide count,CDK12,493.905 and 565.93
same,CDK12 peptide count (DMSO-normalised),CDK12,0.5487 and 0.5845
C[C@H](C(=O)Nc1nc2ccccc2[nH]1)N1Cc2ccccc2C1=O [compound 919278],TR-FRET signal,CDK12–cyclin K and DDB1; [1],0.3356 and 0.3148
same,TR-FRET signal,CDK12–cyclin K and DDB1; compound concentration 2.16 nM,0.4152 and 0.4184
same,TR-FRET signal,CDK12–cyclin K and DDB1; compound concentration 3.6 nM,0.5887 and 0.6016
same,TR-FRET signal,CDK12–cyclin K and DDB1; [2],0.8771 and 0.9002
same,TR-FRET signal,CDK12–cyclin K and DDB1; [3],1.301 and 1.376
same,TR-FRET signal,CDK12–cyclin K and DDB1; [4],2 and 2.052
same,TR-FRET signal,CDK12–cyclin K and DDB1; [5],2.747 and 2.77
same,TR-FRET signal,CDK12–cyclin K and DDB1; [6],3.33 and 3.298
same,TR-FRET signal,CDK12–cyclin K and DDB1; [7],3.75 and 3.634
same,TR-FRET signal,CDK12–cyclin K and DDB1; [8],4.177 and 4.02
same,TR-FRET signal,CDK12–cyclin K and DDB1; [9],4.179 and 4.0366
same,EC50,CDK12–cyclin K and DDB1; [10],0.038 ± 0.001 µM
same,EC50,CDK12–cyclin K and DDB1; [11],0.0378 µM
same,EC50,CDK12–cyclin K and DDB1; [12],0.0378 µM
same,viability assay signal (normalized),"HEK293T cells; 2 nM, + MLN4924",1.029 and 0.9647
same,viability assay signal (normalized),"HEK293T cells; 2 nM, without MLN4924",1.055 and 1.0418
same,viability assay signal (normalized),"HEK293T cells; 4.69 nM, + MLN4924",1.105 and 1.018
same,viability assay signal (normalized),"HEK293T cells; 4.69 nM, without MLN4924",1.004 and 1.008
same,viability assay signal (normalized),"HEK293T cells; 11 nM, + MLN4924",1.0606 and 0.9151
same,viability assay signal (normalized),"HEK293T cells; 11 nM, without MLN4924",1.048 and 1.059
same,viability assay signal (normalized),"HEK293T cells; 25.7 nM, + MLN4924",1.025 and 1.119
same,viability assay signal (normalized),"HEK293T cells; 25.7 nM, without MLN4924",0.893 and 1.0689
same,viability assay signal (normalized),"HEK293T cells; 141 nM, + MLN4924",1.103 and 1.1762
same,viability assay signal (normalized),"HEK293T cells; 141 nM, without MLN4924",1.0013 and 1.019
same,viability assay signal (normalized),"HEK293T cells; 331 nM, + MLN4924",1.1 and 1.102
same,viability assay signal (normalized),"HEK293T cells; 331 nM, without MLN4924",0.8356 and 0.898
same,viability assay signal (normalized),"HEK293T cells; 4270 nM, + MLN4924",0.7328 and 0.6837
same,viability assay signal (normalized),"HEK293T cells; 4270 nM, without MLN4924",0.374 and 0.3286
same,viability assay signal (normalized),"HEK293T cells; 10000 nM, + MLN4924",0.484 and 0.4101
same,viability assay signal (normalized),"HEK293T cells; 10000 nM, without MLN4924",0.3001 and 0.3205
same,EC50,HEK293T cells,0.559 µM
same,Toxicity rescue,HEK293T cells,749%
same,CDK12 peptide count,CDK12,562.617 and 625.634
same,CDK12 peptide count (DMSO-normalised),CDK12,0.6251 and 0.6462
